# Values quoted from earlier work, collected in patent US20080260785A1, “PAROXETINE COMPOSITIONS” (priority 2005, published 2008).
# Conditions: hydrochloride hemihydrate
smiles,measurement,value
"Cl.Fc1ccc([C@@H]2CCNC[C@H]2COc2ccc3c(c2)OCO3)cc1 [Paroxetine, (−)-trans-4R-(4′-fluorophenyl)-3S-[(3′,4′-methylenedioxyphenoxy)methyl]piperidine]",solubility in water,5400 µg/mL
